Results taken from article PMC9430628 (Microbiology Spectrum, 2022).

Legend:
[1] = test system: rNA (N-acyl-L-amino acid amidohydrolase NA); assay: HPLC of OTalpha formed, Michaelis-Menten nonlinear fit; type: biochemical, Stenotrophomonas sp. CW117; settings: PBS pH 7.2, 42 °C, 6 h; OTA 15-65 μg/L
[2] = test system: T1, rADH3 (amidohydrolase ADH3); settings: conditions not given here (as in the authors' earlier paper); cited from earlier work
T1 construct: gene H7691_12935

For `C[C@@H]1Cc2c(Cl)cc(C(=O)N[C@@H](Cc3ccccc3)C(=O)O)c(O)c2C(=O)O1` [Ochratoxin A], the Km [1] is given as 3.8 µM and the Km [2] is given as 0.039 µM.
